Test results published in patent US9944602B2, “Piperidinone herbicides” (E. I. DU PONT DE NEMOURS AND COMPANY, priority 2014, dated 2018).

Legend:
Assay type in all cases: in vivo
[1] = system: barnyardgrass (Echinochloa crus-galli); test: Test C flooded paddy test barnyardgrass; details: Table C, Flood, scale 0 to 100
Source text: (§1) Plant species in the flooded paddy test consisted of rice (Oryza sativa), sedge, umbrella (small-flower umbrella sedge, Cyperus difformis), ducksalad (Heteranthera limosa), and barnyardgrass (Echinochloa crus-galli) grown to the 2-leaf stage for testing. At time of treatment, test pots were flooded to 3 cm above the soil surface, treated by application of test compounds directly to the paddy water, and then maintained at that water depth for the duration of the test. Treated plants and controls were maintained in a greenhouse for 13 to 15 d, after which time all species were compared to controls and visually evaluated. Plant response ratings, summarized in Table C, are based on a scale of 0 to 100 where 0 is no effect and 100 is complete control. A dash (-) response means no test result.

[2] = system: barnyardgrass (Echinochloa crus-galli); test: Test B flooded paddy test barnyardgrass; details: Table B, Flood, 500 g ai/ha, scale 0 to 100
Outline: (§2)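 2-leaf plants; flood 3 cm over soil; cpd into paddy water; water depth kept; greenhouse 13–15 d; visual rating vs controls.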

[3] = system: wheat (Triticum aestivum); test: Test A postemergence wheat; details: 0 to 100 scale, 0 is no effect, 100 is complete control
Outline: (§3)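 Both application timings used the same loam-and-sand medium and the same solvent–surfactant formulation. Postemergence plants were 2–10 cm at the one- to two-leaf stage. After roughly 10 d of greenhouse growth, injury was judged visually against untreated plants, where 0 is no effect and 100 complete control.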

[4] = system: pigweed (Amaranthus retroflexus); test: Test A postemergence pigweed; details: 0 to 100 scale, 0 is no effect, 100 is complete control
Outline: as §3

[5] = system: ragweed (common ragweed, Ambrosia elatior); test: Test A postemergence ragweed; details: 0 to 100 scale, 0 is no effect, 100 is complete control
Outline: as §3

[6] = system: pigweed (Amaranthus retroflexus); test: Test A preemergence pigweed; details: 0 to 100 scale, 0 no effect, 100 complete control
Outline: as §3

[7] = system: barnyardgrass (Echinochloa crus-galli); test: Test A postemergence barnyardgrass; details: 0 to 100 scale, 0 is no effect, 100 is complete control
Outline: as §3

[8] = system: ryegrass, Italian (Italian ryegrass, Lolium multiflorum); test: Test A postemergence ryegrass, Italian; details: 0 to 100 scale, 0 is no effect, 100 is complete control
Outline: as §3

kochia (Kochia scoparia) [9] = test: Test A preemergence kochia; details: 0 to 100 scale, 0 no effect, 100 complete control
Outline: as §3

[10] = system: barnyardgrass (Echinochloa crus-galli); test: Test A preemergence barnyardgrass; details: 0 to 100 scale, 0 no effect, 100 complete control
Outline: as §3

[11] = system: galium (catchweed bedstraw, Galium aparine); test: Test A postemergence galium; details: 0 to 100 scale, 0 is no effect, 100 is complete control
Outline: as §3

[12] = system: foxtail, giant (giant foxtail, Setaria faberii); test: Test A postemergence foxtail, giant; details: 0 to 100 scale, 0 is no effect, 100 is complete control
Outline: as §3

[13] = system: sedge, umbrella (small-flower umbrella sedge, Cyperus difformis); test: Test B flooded paddy test sedge, umbrella; details: Table B, Flood, 500 g ai/ha, scale 0 to 100
Outline: as §2

[14] = system: ryegrass, Italian (Italian ryegrass, Lolium multiflorum); test: Test A preemergence ryegrass, Italian; details: 0 to 100 scale, 0 no effect, 100 complete control
Outline: as §3

rice (Oryza sativa) [15] = test: Test C flooded paddy test rice; details: Table C, Flood, scale 0 to 100
Source text: as §1

[16] = system: ducksalad (Heteranthera limosa); test: Test B flooded paddy test ducksalad; details: Table B, Flood, 500 g ai/ha, scale 0 to 100
Outline: as §2

[17] = system: ragweed (common ragweed, Ambrosia elatior); test: Test A preemergence ragweed; details: 0 to 100 scale, 0 no effect, 100 complete control
Outline: as §3

[18] = system: blackgrass (Alopecurus myosuroides); test: Test A postemergence blackgrass; details: 0 to 100 scale, 0 is no effect, 100 is complete control
Outline: as §3

[19] = system: sedge, umbrella (small-flower umbrella sedge, Cyperus difformis); test: Test C flooded paddy test sedge, umbrella; details: Table C, Flood, scale 0 to 100
Source text: as §1

corn (Zea mays) = test: Test A postemergence corn; details: 0 to 100 scale, 0 is no effect, 100 is complete control
Outline: as §3

[20] = system: ducksalad (Heteranthera limosa); test: Test C flooded paddy test ducksalad; details: Table C, Flood, scale 0 to 100
Source text: as §1

rice (Oryza sativa) [21] = test: Test B flooded paddy test rice; details: Table B, Flood, 500 g ai/ha, scale 0 to 100
Outline: as §2

[22] = system: foxtail, giant (giant foxtail, Setaria faberii); test: Test A preemergence foxtail, giant; details: 0 to 100 scale, 0 no effect, 100 complete control
Outline: as §3

kochia (Kochia scoparia) [23] = test: Test A postemergence kochia; details: 0 to 100 scale, 0 is no effect, 100 is complete control
Outline: as §3

O=C1NCCC(c2cccc(C(F)(F)F)c2)C1C(=O)Nc1ccc(F)c(F)c1F (racemic) [Compound 28]
Plant response rating ([1]; 31 g ai/ha): 60
Plant response rating ([1]; 62 g ai/ha): 65
Plant response rating ([1]; 125 g ai/ha): 70
Plant response rating ([1]; 250 g ai/ha): 75
Plant response rating [2]: 100
Plant response rating, Wheat ([3]; 125 g ai/ha): 0
Plant response rating, Wheat ([3]; 500 g ai/ha): 20
Plant response rating, Pigweed ([4]; 125 g ai/ha): 0
Plant response rating, Pigweed ([4]; 500 g ai/ha): 0
Plant response rating, Ragweed ([5]; 125 g ai/ha): 0
Plant response rating, Ragweed ([5]; 500 g ai/ha): 0
Pigweed plant response rating ([6]; 125 g ai/ha): 0
Pigweed plant response rating ([6]; 500 g ai/ha): 20
Plant response rating, Barnyardgrass ([7]; 125 g ai/ha): 60
Plant response rating, Barnyardgrass ([7]; 500 g ai/ha): 80
Plant response rating, Ryegrass, Italian ([8]; 125 g ai/ha): 0
Plant response rating, Ryegrass, Italian ([8]; 500 g ai/ha): 0
Kochia plant response rating (kochia (Kochia scoparia) [9]; 125 g ai/ha): 20
Kochia plant response rating (kochia (Kochia scoparia) [9]; 500 g ai/ha): 20
Barnyardgrass plant response rating ([10]; 125 g ai/ha): 90
Barnyardgrass plant response rating ([10]; 500 g ai/ha): 90
Plant response rating, Galium ([11]; 125 g ai/ha): 0
Plant response rating, Galium ([11]; 500 g ai/ha): 0
Plant response rating, Foxtail, Giant ([12]; 125 g ai/ha): 70
Plant response rating, Foxtail, Giant ([12]; 500 g ai/ha): 90
Plant response rating [13]: 0
Ryegrass, Italian plant response rating ([14]; 125 g ai/ha): 20
Ryegrass, Italian plant response rating ([14]; 500 g ai/ha): 40
Plant response rating (rice (Oryza sativa) [15]; 31 g ai/ha): 0
Plant response rating (rice (Oryza sativa) [15]; 62 g ai/ha): 0
Plant response rating (rice (Oryza sativa) [15]; 125 g ai/ha): 0
Plant response rating (rice (Oryza sativa) [15]; 250 g ai/ha): 0
Plant response rating [16]: 85
Ragweed plant response rating ([17]; 125 g ai/ha): 0
Ragweed plant response rating ([17]; 500 g ai/ha): 0
Plant response rating, Blackgrass ([18]; 125 g ai/ha): 0
Plant response rating, Blackgrass ([18]; 500 g ai/ha): 20
Plant response rating ([19]; 31 g ai/ha): 0
Plant response rating ([19]; 62 g ai/ha): 0
Plant response rating ([19]; 125 g ai/ha): 0
Plant response rating ([19]; 250 g ai/ha): 0
Plant response rating, Corn (corn (Zea mays); 125 g ai/ha): 30
Plant response rating, Corn (corn (Zea mays); 500 g ai/ha): 60
Plant response rating ([20]; 31 g ai/ha): 45
Plant response rating ([20]; 62 g ai/ha): 50
Plant response rating ([20]; 125 g ai/ha): 60
Plant response rating ([20]; 250 g ai/ha): 70
Plant response rating (rice (Oryza sativa) [21]): 15
Foxtail, Giant plant response rating ([22]; 125 g ai/ha): 90
Foxtail, Giant plant response rating ([22]; 500 g ai/ha): 90
Plant response rating, Kochia (kochia (Kochia scoparia) [23]; 125 g ai/ha): 0
Plant response rating, Kochia (kochia (Kochia scoparia) [23]; 500 g ai/ha): 0
